Assays:
Assay in all cases: ABPP chemical proteomics (LC-MS/MS) in HEK293T cells
Format in all cases: cell-based
ALYREF = molecular target: T1, ALYREF (Homo sapiens, UniProt Q86V81); details: IMP-2586 labelling vs DMSO, 30 nM, 10 min, HEK293T (Table S4, Fig.5c)
T1 construct: endogenous in cells; host or cells: HEK293T
Method in brief: (§1)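 Proteome-wide selectivity was profiled by competitive ABPP. Cells received […] and then activity-based probe for 1 h at 37 °C. Lysates were ligated to biotin capture tags, affinity-enriched and analysed by mass spectrometry.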

RPL27 = molecular target: T2, RPL27 (Homo sapiens, UniProt P61353); details: IMP-2586 labelling vs DMSO, 30 nM, 10 min, HEK293T (Table S4, Fig.5c)
T2 construct: endogenous in cells; host or cells: HEK293T
Method in brief: as §1

TMEM109 = molecular target: T3, TMEM109 (Homo sapiens, UniProt Q9BVC6); details: IMP-2586 labelling vs DMSO, 30 nM, 10 min, HEK293T (Table S4, Fig.5c)
T3 construct: endogenous in cells; host or cells: HEK293T
T3 sequence (Q9BVC6 34-243): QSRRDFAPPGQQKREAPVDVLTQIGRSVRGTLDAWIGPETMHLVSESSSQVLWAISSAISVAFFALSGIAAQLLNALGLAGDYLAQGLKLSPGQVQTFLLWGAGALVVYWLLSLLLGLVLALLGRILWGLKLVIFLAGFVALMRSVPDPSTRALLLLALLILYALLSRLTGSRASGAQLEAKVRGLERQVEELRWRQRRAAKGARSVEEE
Method in brief: as §1

CFAP20 = molecular target: T4, CFAP20 (Homo sapiens, UniProt Q9Y6A4); details: IMP-2586 labelling vs DMSO, 30 nM, 10 min, HEK293T (Table S4, Fig.5c)
T4 construct: endogenous in cells; host or cells: HEK293T
T4 sequence (Q9Y6A4 whole entry): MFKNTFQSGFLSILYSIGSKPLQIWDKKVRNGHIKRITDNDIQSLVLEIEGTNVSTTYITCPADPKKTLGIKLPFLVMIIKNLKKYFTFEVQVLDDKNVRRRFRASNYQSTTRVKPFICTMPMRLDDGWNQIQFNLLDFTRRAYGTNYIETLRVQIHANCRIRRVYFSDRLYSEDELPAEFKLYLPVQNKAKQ
Method in brief: as §1

ASAH1 = molecular target: T5, ASAH1 (Homo sapiens, UniProt Q13510); details: IMP-2586 labelling vs DMSO, 30 nM, 10 min, HEK293T (Table S4, Fig.5c)
T5 construct: endogenous in cells; host or cells: HEK293T
T5 sequence (Q13510 22-395): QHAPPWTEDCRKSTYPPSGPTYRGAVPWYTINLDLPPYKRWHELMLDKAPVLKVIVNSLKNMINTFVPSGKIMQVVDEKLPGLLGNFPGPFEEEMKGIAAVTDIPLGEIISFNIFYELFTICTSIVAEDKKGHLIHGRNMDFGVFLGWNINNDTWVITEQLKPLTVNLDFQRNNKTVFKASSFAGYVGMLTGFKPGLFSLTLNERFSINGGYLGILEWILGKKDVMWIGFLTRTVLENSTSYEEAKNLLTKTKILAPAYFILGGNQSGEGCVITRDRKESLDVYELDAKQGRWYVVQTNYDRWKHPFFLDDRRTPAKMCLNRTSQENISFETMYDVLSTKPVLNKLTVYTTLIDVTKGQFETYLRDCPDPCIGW
Method in brief: as §1

HSDL1 = molecular target: T6, HSDL1 (Homo sapiens, UniProt Q3SXM5); details: IMP-2586 labelling vs DMSO, 30 nM, 10 min, HEK293T (Table S4, Fig.5c)
T6 construct: endogenous in cells; host or cells: HEK293T
T6 sequence (Q3SXM5 whole entry): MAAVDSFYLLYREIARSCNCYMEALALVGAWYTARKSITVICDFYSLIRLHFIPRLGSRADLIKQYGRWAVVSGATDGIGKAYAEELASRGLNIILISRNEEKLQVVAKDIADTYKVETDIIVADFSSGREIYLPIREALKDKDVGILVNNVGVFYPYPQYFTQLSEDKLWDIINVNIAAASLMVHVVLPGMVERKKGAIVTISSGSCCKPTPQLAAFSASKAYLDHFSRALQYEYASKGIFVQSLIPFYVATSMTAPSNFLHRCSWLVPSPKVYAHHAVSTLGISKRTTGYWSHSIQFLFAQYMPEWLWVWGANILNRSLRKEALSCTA
Method in brief: as §1

MDC1 = molecular target: T7, MDC1 (Homo sapiens, UniProt Q14676); details: IMP-2586 labelling vs DMSO, 30 nM, 10 min, HEK293T (Table S4, Fig.5c)
T7 construct: endogenous in cells; host or cells: HEK293T
T7 sequence (Q14676 whole entry): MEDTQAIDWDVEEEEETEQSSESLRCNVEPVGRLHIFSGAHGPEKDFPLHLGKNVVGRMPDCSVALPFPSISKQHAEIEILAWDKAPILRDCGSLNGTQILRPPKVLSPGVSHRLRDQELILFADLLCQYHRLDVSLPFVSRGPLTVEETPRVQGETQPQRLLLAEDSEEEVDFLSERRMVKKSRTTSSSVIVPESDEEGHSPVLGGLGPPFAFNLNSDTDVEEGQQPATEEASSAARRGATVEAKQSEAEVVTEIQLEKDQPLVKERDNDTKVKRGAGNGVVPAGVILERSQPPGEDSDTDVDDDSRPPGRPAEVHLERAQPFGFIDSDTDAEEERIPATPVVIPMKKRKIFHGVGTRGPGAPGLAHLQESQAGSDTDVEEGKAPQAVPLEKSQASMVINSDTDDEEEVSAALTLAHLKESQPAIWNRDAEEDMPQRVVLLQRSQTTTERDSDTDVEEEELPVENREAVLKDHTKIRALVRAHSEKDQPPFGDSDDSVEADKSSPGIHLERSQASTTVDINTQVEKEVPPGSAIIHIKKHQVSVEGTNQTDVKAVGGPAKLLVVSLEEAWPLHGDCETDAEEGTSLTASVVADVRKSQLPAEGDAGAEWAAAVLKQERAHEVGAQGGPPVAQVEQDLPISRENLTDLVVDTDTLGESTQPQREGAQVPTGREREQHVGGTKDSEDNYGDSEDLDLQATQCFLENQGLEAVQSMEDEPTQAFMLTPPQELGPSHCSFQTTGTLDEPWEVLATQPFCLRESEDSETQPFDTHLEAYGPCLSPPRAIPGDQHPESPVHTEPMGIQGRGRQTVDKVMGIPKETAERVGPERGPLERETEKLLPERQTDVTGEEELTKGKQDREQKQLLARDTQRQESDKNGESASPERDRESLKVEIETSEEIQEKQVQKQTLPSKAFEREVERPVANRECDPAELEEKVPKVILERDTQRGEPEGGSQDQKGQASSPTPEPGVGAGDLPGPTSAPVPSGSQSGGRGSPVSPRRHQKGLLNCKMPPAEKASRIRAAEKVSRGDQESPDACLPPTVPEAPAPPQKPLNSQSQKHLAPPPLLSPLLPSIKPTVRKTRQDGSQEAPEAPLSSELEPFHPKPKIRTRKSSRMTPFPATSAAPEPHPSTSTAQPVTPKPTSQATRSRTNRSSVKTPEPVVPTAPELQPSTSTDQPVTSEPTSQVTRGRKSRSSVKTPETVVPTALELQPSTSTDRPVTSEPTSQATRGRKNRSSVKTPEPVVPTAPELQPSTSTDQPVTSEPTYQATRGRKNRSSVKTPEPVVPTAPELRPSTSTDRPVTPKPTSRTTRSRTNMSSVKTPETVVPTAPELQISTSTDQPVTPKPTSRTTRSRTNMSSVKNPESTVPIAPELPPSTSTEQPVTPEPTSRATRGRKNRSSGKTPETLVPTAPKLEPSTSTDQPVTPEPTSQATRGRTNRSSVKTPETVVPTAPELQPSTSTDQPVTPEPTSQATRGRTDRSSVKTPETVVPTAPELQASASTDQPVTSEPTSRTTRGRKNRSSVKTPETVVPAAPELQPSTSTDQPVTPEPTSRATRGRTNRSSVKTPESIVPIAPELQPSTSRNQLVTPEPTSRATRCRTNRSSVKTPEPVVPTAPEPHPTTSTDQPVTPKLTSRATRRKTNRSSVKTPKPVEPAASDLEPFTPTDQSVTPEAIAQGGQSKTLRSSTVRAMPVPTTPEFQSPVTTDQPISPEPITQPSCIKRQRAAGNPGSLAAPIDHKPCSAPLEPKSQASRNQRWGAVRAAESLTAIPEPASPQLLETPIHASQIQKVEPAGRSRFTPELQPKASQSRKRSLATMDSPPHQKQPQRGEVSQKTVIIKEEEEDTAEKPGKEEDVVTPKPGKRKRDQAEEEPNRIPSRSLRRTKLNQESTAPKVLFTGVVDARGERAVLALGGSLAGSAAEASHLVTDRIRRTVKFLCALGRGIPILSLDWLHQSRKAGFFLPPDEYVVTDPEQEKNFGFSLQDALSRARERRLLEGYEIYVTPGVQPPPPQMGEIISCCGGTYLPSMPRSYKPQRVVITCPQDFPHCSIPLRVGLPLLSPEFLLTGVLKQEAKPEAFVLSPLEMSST
Method in brief: as §1

NIT2 = molecular target: T8, NIT2 (Homo sapiens, UniProt Q9NQR4); details: IMP-2587 labelling vs DMSO, 30 nM, 10 min, HEK293T (Table S2, Fig.5a)
T8 construct: endogenous in cells; host or cells: HEK293T
T8 sequence (Q9NQR4 whole entry): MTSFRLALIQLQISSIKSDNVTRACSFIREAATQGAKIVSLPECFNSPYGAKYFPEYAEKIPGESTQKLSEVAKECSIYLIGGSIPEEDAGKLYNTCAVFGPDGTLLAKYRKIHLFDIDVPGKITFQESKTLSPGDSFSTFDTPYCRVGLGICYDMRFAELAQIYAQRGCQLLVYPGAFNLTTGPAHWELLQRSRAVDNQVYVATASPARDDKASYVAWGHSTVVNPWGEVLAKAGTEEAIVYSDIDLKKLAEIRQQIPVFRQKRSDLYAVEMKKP
Method in brief: as §1

RPS8 = molecular target: T9, RPS8 (Homo sapiens, UniProt P62241); details: IMP-2587 labelling vs DMSO, 30 nM, 10 min, HEK293T (Table S2, Fig.5a)
T9 construct: endogenous in cells; host or cells: HEK293T
Method in brief: as §1

DCD = molecular target: T10, DCD (Homo sapiens, UniProt P81605); details: compound 1 out-competition with IMP-2587 labelling, HEK293T (Table S3, Fig.5b)
T10 construct: endogenous in cells; host or cells: HEK293T
T10 sequence (P81605 20-110): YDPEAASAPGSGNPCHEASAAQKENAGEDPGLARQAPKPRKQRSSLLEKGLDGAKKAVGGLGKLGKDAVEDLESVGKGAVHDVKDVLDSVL
Method in brief: as §1

RPL10 = molecular target: T11, RPL10 (Homo sapiens, UniProt P27635); details: compound 1 out-competition with IMP-2587 labelling, HEK293T (Table S3, Fig.5b)
T11 construct: endogenous in cells; host or cells: HEK293T
Method in brief: as §1

ACTG1 = molecular target: T12, ACTG1 (Homo sapiens, UniProt P63261); details: compound 1 out-competition with IMP-2587 labelling, HEK293T (Table S3, Fig.5b)
T12 construct: endogenous in cells; host or cells: HEK293T
Method in brief: as §1

RPL34 = molecular target: T13, RPL34 (Homo sapiens, UniProt P49207); details: compound 1 out-competition with IMP-2587 labelling, HEK293T (Table S3, Fig.5b)
T13 construct: endogenous in cells; host or cells: HEK293T
Method in brief: as §1

CLPTM1 = molecular target: T14, CLPTM1 (Homo sapiens, UniProt O96005); details: compound 3 out-competition with IMP-2586 labelling, HEK293T (Table S5, Fig.5d)
T14 construct: endogenous in cells; host or cells: HEK293T
T14 sequence (O96005 whole entry): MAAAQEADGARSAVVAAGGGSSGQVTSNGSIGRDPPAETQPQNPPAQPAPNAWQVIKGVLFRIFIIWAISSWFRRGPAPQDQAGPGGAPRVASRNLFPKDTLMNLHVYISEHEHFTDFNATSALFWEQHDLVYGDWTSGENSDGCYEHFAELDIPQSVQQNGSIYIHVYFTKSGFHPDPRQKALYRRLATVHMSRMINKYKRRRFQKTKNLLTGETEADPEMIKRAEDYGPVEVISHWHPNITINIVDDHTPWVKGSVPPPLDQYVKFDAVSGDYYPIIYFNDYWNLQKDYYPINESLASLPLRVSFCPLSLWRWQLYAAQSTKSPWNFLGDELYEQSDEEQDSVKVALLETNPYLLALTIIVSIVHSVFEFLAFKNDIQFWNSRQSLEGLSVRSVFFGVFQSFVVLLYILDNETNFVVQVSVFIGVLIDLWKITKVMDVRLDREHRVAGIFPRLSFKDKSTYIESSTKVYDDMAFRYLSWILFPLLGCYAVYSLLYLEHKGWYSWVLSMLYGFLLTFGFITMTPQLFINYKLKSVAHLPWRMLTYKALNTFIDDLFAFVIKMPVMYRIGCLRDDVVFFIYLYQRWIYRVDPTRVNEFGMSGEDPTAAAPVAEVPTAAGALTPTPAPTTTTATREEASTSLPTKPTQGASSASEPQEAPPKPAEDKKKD
Method in brief: as §1

LUC7L3 = molecular target: T15, LUC7L3 (Homo sapiens, UniProt O95232); details: compound 3 out-competition with IMP-2586 labelling, HEK293T (Table S5, Fig.5d)
T15 construct: endogenous in cells; host or cells: HEK293T
T15 sequence (O95232 whole entry): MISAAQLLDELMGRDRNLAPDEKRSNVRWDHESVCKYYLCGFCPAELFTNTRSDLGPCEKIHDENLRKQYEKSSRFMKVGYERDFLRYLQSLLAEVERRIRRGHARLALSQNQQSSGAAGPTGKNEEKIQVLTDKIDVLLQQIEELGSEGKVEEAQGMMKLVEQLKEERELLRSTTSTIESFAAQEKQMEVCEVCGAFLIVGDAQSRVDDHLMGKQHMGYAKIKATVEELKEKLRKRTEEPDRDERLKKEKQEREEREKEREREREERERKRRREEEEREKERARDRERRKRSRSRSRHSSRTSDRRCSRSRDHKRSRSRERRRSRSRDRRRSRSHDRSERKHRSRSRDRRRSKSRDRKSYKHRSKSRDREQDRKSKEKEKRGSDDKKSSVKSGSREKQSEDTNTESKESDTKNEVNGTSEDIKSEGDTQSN
Method in brief: as §1

For `N#CN1CC[C@@H](NC(=O)c2cc(-c3ccccc3Oc3ccc(N=[N+]=[N-])cc3)n[nH]2)C1` [IMP-2586], the “Difference (log2 fold change of enrichment)” value (ALYREF) was -0.42, the “Difference (log2 fold change of enrichment)” value (RPL27) was -0.76 and the “Difference (log2 fold change of enrichment)” value (TMEM109) was -1.56. The “Difference (log2 fold change of enrichment)” value (CFAP20) was -0.41, the “Difference (log2 fold change of enrichment)” value (ASAH1) was 1.08 and the “Difference (log2 fold change of enrichment)” value (HSDL1) was 1.22. For the same molecule, the “Difference (log2 fold change of enrichment)” value (MDC1) was 0.38.

For `C#Cc1cccc(-c2cc(NC(=O)CC3CCN(C#N)C3)on2)c1` (stereo not drawn) [IMP-2587], the “Difference (log2 fold change of enrichment)” value (NIT2) was 0.61 and the “Difference (log2 fold change of enrichment)” value (RPS8) was -0.44.

In the case of `N#CN1CC[C@H](CC(=O)Nc2cc(-c3cccc(Cl)c3)no2)C1` [compound 1, reference compound], the “Difference (log2 fold change of enrichment)” value (DCD) is reported as -0.34, the “Difference (log2 fold change of enrichment)” value (RPL10) is reported as -0.52 and the “Difference (log2 fold change of enrichment)” value (ACTG1) is reported as -0.57. The “Difference (log2 fold change of enrichment)” value (RPL34) was -0.67.

In the case of `N#CN1CC[C@@H](NC(=O)c2cc(-c3ccccc3Oc3ccccc3)n[nH]2)C1` [compound 3, reference compound], the “Difference (log2 fold change of enrichment)” value (CLPTM1) is reported as -1.18 and the “Difference (log2 fold change of enrichment)” value (LUC7L3) is reported as -0.51.

— paper PMC11078216, “Discovery of potent and selective activity-based probes (ABPs) for the deubiquitinating enzyme USP30” (RSC Chemical Biology, 2024)
